Measured values taken from US11160790B2, “Method of inhibiting Cryptococcus growth using eltrombopag” (priority 2019, dated 2021).

Key:
[1] = tested on: C. deuterogattii R265; test: Checkerboard titration assay; format: cell-based, Cryptococcus deuterogattii; settings: 30° C., 48 hours
Method: Amphotericin B plus 5-flucytosine or fluconazole are combinations often used to treat cryptococcal meningitis. To investigate the synergy between eltrombopag and existing antifungal drugs or other drugs, a checkerboard titration assay was performed on Cryptococcus. Briefly, C. neoformans […] and C. deuterogattii […] cells were cultured overnight at 30° C. and then washed twice with double-distilled water. The cells were diluted to 10^3 cfu/mL with RPMI 1640 medium, and 100 μL of the cell suspension was added to each well of a 96-well polystyrene plate. […] After incubation at 30° C. for 48 hours, the growth of cells under different treatments was assessed by measuring the light absorbance at 600 nm (OD600). This assay allows the determination of fractional inhibitory concentration index (FICI): (MICcombined of drug A/MICalone of drug A)+(MICcombined of drug B/MICalone of drug B). After the checkerboard titration assay, the cells (3 μL) in the 96-well plate were transferred to drug-free YPD agar plates. After incubation at 30° C. for 48 hours, the agar plates were photographed and assessed for cell viability.

[2] = tested on: C. neoformans H99; test: Capsule size assay (India ink); format: cell-based, Cryptococcus neoformans; settings: 0.06 mg/L, 37° C., 48 hours, versus no eltrombopag treatment
Method: Cryptococcus and Candida species were cultured in yeast extract-peptone-dextrose (YPD) medium (containing 1% yeast extract, 2% peptone, 2% glucose, and optionally 2% agar for preparation of an agar plate). Aspergillus, Fusarium, and Trichophyton species were cultured on potato dextrose agar (PDA) plate (containing 2% potato infusion, […], and 1.5% agar). A microdilution assay was performed to determine minimum inhibitory concentration (MIC), minimum fungicidal concentration (MFC), and fractional inhibitory concentration (FIC) index (FICI) using RPMI 1640 medium buffered with MOPS. Minimal medium (containing 15 mM glucose, 10 mM magnesium sulfate, 29.4 mM potassium dihydrogen phosphate, 13 mM glycine, and 3 μM thiamine hydrochloride; pH 5.5) was used for capsule size assay and melanization assay.
Cryptococcus capsule, the structure attached to the outer surface of the cell wall and mainly composed of polysaccharides, can increase the resistance of Cryptococcus to host immune response (such as phagocytosis by macrophages) and harsh conditions (such as extreme acidity or alkalinity, high CO2 levels, or iron deprivation). To test whether eltrombopag affects capsule formation in Cryptococcus, C. neoformans H99 and C. deuterogattii R265 cells were cultured overnight in YPD media at 30° C. […] Statistical significance for the data sets was determined using a two-tailed t test.

## CC1=NN(c2ccc(C)c(C)c2)C(=O)/C1=N\Nc1cccc(-c2cccc(C(=O)O)c2)c1O [eltrombopag]
[1]
  MICalone: 0.5 mg/L
[1]; ETP in combination with AMB
  MICcombined of ETP: 0.03 mg/L
[1]; ETP in combination with CsA
  MICcombined of ETP: 1 mg/L
[1]; ETP in combination with FK506
  MICcombined of ETP: 0.015 mg/L
[1]; ETP in combination with FLC
  MICcombined of ETP: 0.03 mg/L
[2]
  capsule size: capsule size significantly reduced
